Earlier results in US8198326B2, “Phenolic antiseptic compositions and methods of use” (3M Innovative Properties Company, priority 2004, dated 2012).

Tested on: methicillin resistant staphylococcus aureus
Details: reaction of free iodine with the organic load

povidone-iodine
decrease of activity on addition of nasal secretions: 80-90%
